Laboratory results reported in PubChem BioAssay (NCI).
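Dose response: 5 concentrations. Exposure: 48 h. Format: 96-well plates. Endpoint: linear interpolation; highest concentration if not reached. TGI is the concentration that stops growth completely.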

Assays:
Assay in all cases: DTP human tumour cell line panel, 48 h
[1] = system: MDA-MB-231 breast
[2] = system: COLO 205 colon
[3] = system: CCRF-CEM leukemia
[4] = system: 786-0 renal
[5] = system: K-562 leukemia
[6] = system: RXF 393 renal
[7] = system: SNB-19 CNS
[8] = system: SK-MEL-5 melanoma
[9] = system: BT-549 breast
[10] = system: HT29 colon
[11] = system: PC-3 prostate
[12] = system: NCI/ADR-RES ovarian
[13] = system: MDA-MB-435
[14] = system: SW-620 colon
[15] = system: SK-MEL-28 melanoma
[16] = system: MOLT-4 leukemia
[17] = system: HL-60(TB) leukemia
[18] = system: CAKI-1 renal
[19] = system: IGROV1 ovarian
[20] = system: EKVX NSCLC
[21] = system: HOP-92 NSCLC
[22] = system: SNB-75 CNS
[23] = system: U251 CNS
[24] = system: A498 renal
[25] = system: OVCAR-4 ovarian
[26] = system: LOX IMVI melanoma
[27] = system: UACC-62 melanoma
[28] = system: MCF7 breast
[29] = system: T-47D breast
[30] = system: NCI-H23 lung
[31] = system: OVCAR-8 ovarian
[32] = system: RPMI-8226 leukemia
[33] = system: OVCAR-3 ovarian
[34] = system: HCC-2998 colon
[35] = system: SK-OV-3 ovarian
[36] = system: HCT-15 colon
[37] = system: HOP-62 NSCLC
[38] = system: SF-268 CNS
[39] = system: SK-MEL-2 melanoma
[40] = system: HS 578T breast
[41] = system: MDA-N
[42] = system: SF-295 CNS
[43] = system: SN12C renal
[44] = system: KM12 colon
[45] = system: M14 melanoma
[46] = system: A549 NSCLC
[47] = system: HCT-116 colon
[48] = system: SF-539 CNS
[49] = system: OVCAR-5 ovarian
[50] = system: DU-145 prostate
[51] = system: UO-31 renal
[52] = system: TK-10 renal
[53] = system: UACC-257 melanoma
[54] = system: SR leukemia
[55] = system: NCI-H460 lung
[56] = system: NCI-H226 lung
[57] = system: ACHN renal

CC(C)CCCC(C)[C@H]1CC[C@H]2[C@@H]3CC[C@H]4C[C@@H](CCC=C(c5cc(Cl)c(O)c(C(=O)OC(C)C)c5)c5cc(Cl)c(O)c(C(=O)OC(C)C)c5)CC[C@]4(C)[C@H]3CC[C@]12C (stereo partly specified)
TGI [1]: > 50 µM | TGI [2]: > 50 µM | TGI [3]: > 50 µM | TGI [4]: > 50 µM | TGI [5]: > 50 µM | TGI [6]: > 50 µM | TGI [7]: > 50 µM | TGI [8]: > 50 µM | TGI [9]: > 50 µM | TGI [10]: > 50 µM | TGI [11]: > 50 µM | TGI [12]: > 50 µM | TGI [13]: > 50 µM | TGI [14]: > 50 µM | TGI [15]: > 50 µM | TGI [16]: > 50 µM | TGI [17]: > 50 µM | TGI [18]: > 50 µM | TGI [19]: > 50 µM | TGI [20]: > 50 µM | TGI [21]: > 50 µM | TGI [22]: > 50 µM | TGI [23]: > 50 µM | TGI [24]: > 50 µM | TGI [25]: > 50 µM | TGI [26]: > 50 µM | TGI [27]: > 50 µM | TGI [28]: > 50 µM | TGI [29]: > 50 µM | TGI [30]: > 50 µM | TGI [31]: > 50 µM | TGI [32]: > 50 µM | TGI [33]: > 50 µM | TGI [34]: > 50 µM | TGI [35]: > 50 µM | TGI [36]: > 50 µM | TGI [37]: > 50 µM | TGI [38]: > 50 µM | TGI [39]: > 50 µM | TGI [40]: > 50 µM | TGI [41]: > 50 µM | TGI [42]: > 50 µM | TGI [43]: > 50 µM | TGI [44]: > 50 µM | TGI [45]: > 50 µM | TGI [46]: > 50 µM | TGI [47]: > 50 µM | TGI [48]: > 50 µM | TGI [49]: > 50 µM | TGI [50]: > 50 µM

COc1ccc(/C=C2\CCS(=O)(=O)c3ccccc3C2=O)cc1OC
TGI [1]: > 100 µM | TGI [2]: > 100 µM | TGI [3]: > 100 µM | TGI [4]: > 100 µM | TGI [5]: > 100 µM | TGI [6]: > 100 µM | TGI [7]: > 100 µM | TGI [51]: > 100 µM | TGI [9]: 76.2 µM | TGI [52]: > 100 µM | TGI [10]: > 100 µM | TGI [11]: > 100 µM | TGI [12]: 81.6 µM | TGI [13]: > 100 µM | TGI [14]: > 100 µM | TGI [53]: > 100 µM | TGI [15]: > 100 µM | TGI [16]: > 100 µM | TGI [17]: 70 µM | TGI [18]: > 100 µM | TGI [19]: 72.1 µM | TGI [20]: > 100 µM | TGI [21]: > 100 µM | TGI [22]: 98.4 µM | TGI [23]: > 100 µM | TGI [24]: 73.7 µM | TGI [54]: 89.1 µM | TGI [25]: 71.5 µM | TGI [26]: 43.8 µM | TGI [55]: 47 µM | TGI [27]: 76.6 µM | TGI [28]: > 100 µM | TGI [29]: > 100 µM | TGI [56]: > 100 µM | TGI [30]: > 100 µM | TGI [31]: 43.5 µM | TGI [32]: > 100 µM | TGI [33]: > 100 µM | TGI [34]: 44.1 µM | TGI [35]: > 100 µM | TGI [36]: 50.4 µM | TGI [37]: > 100 µM | TGI [38]: > 100 µM | TGI [57]: > 100 µM | TGI [39]: > 100 µM | TGI [40]: > 100 µM | TGI [41]: > 100 µM | TGI [42]: > 100 µM | TGI [43]: > 100 µM | TGI [44]: > 100 µM | TGI [45]: > 100 µM | TGI [46]: > 100 µM | TGI [47]: > 100 µM | TGI [48]: > 100 µM | TGI [49]: > 100 µM | TGI [50]: > 100 µM
